This is an account of results in US9611453B2, “Micromechanical devices for control of cell-cell interaction, and methods of use thereof” (The Regents of the University of California, priority 2007, dated 2017).

One data set relates to 3T3 fibroblasts. The experiment in a line: Viability assay of hepatocyte / 3T3 fibroblast co-culture after drug exposure, populations separated on micromechanical substrates. The data set is classed as cell-based, murine. An excerpt: FIG. 13 depicts population-specific readout or selective interrogation. Hepatocytes and 3T3 fibroblasts are co-cultured to maintain hepatocyte differentiation. In (A) the drug Pyrilamine is introduced while the cells are in co-culture. By using the micromechanical substrates, the two cell populations are separated prior to viability assay, allowing the viability of each cell type to be assessed independently. […] In (B) the effect of the drug Methapyrilamine is compared when the cells are in co-culture or when the 3T3 are alone.
In another embodiment, in addition to the selective stimulation described above, one can separate a subpopulation of cells from a culture in order to assay those cells specifically; this is known as selective interrogation. One example of selective interrogation is shown in FIG. 11, where SEC cells are separated out from a culture of many cell types, and a Western Blot is performed on the purified SEC population. Another example is in FIG. 15, where hepatocytes and 3T3 fibroblasts are separated before viability assays are performed on each population.

The subject of the next data set is LSEC. The following applies: previously demonstrated (Fujimoto, H. et al. 2006); cited from earlier work.
The test system of data set [1] is liver sinusoidal endothelial cells (LSEC). Nature of the data set: SE-1 expression of cultured LSEC (immunohistochemistry and Western blotting). The following applies: primary rat LSEC cultured in the presence of OV, day 3. The data set is classed as cell-based. How it is done: For example, immunohistochemistry and Western blotting were used to characterize expression of the specific EC markers RECA, SE-1, PECAM and AcLDL in isolated primary rat LSECs were cultured under the following conditions: a) on the different ECM proteins including, Collagen-I, Fibronectin, Laminin, and Collagen-IV; b) with various combinations of supportive cells, using the micromechanical reconfigurable culture method described herein to enable tracking of individual cell types, separation into pure populations for analysis, and deconvolution of contact-mediated versus soluble signals; and c) in the presence of the tyrosine phosphatase inhibitor, orthovanadate (OV).
In addition, the co-culture of LSEC with hepatocytes or fibroblast-stabilized hepatocytes induced LSEC proliferation as well as the activation of the transcription factor STAT-1.

In the case of `CN(C)CCN(Cc1cccs1)c1ccccn1` [Methapyrilamine], the “sensitivity of 3T3 to the toxic effects, co-culture versus 3T3 alone” value in the data set with 3T3 fibroblasts (3T3 in co-culture with hepatocytes or alone, FIG. 13B) is reported as “more sensitive to the toxic effects of the drug when alone”. With `[O]=[V]([O-])([O-])[O-]` [OV, orthovanadate], in the data set on LSEC, the LSEC apoptosis result is “inhibited LSEC apoptosis”. Besides, the SE-1 expression result in data set [1] is listed as “strongly maintaining”.

On to `COc1ccc(CN(CCN(C)C)c2ccccn2)cc1` [Pyrilamine], for which the “sensitivity to the toxic effects (viability), 3T3 versus hepatocytes” value in the data set with 3T3 fibroblasts (drug introduced while hepatocytes and 3T3 are in co-culture, populations separated prior to viability assay, FIG. 13A) is 3T3 are shown to be more sensitive.
